Tests used:
BT474 breast tumor cells = settings: xenografts bearing BT474 breast tumor cells; cited from earlier work
Her-2 in SkBr3 cells = test: Her-2 depletion in SkBr3 cells as pharmacodynamic marker of cellular efficacy; format: cell-based; settings: read-out: PD (Her-2 depletion in SkBr3 cells, EC50); SkBr3 cells treated with the inhibitor overnight

| SMILES | Effect on tumor in xenografts (BT474 breast tumor cells) | EC50 (Her-2 in SkBr3 cells) [nM] |
| --- | --- | --- |
| O=C1OCC/C=C/CC/C=C/C(=N/OCC(=O)N2CCCCC2)Cc2c(Cl)c(O)cc(O)c21 [Pochoxime A] | tumor regression |  |
| CC1C=CCCOC(=O)c2c(O)cc(O)cc2CC(=NOCC(=O)N2CCCCC2)C=CC1 (stereo not drawn) [Compound A1B4C4D1] |  | ≤ 500 |
| CC1=CC(=NOCC(=O)N2CCCCC2)Cc2cc(O)cc(O)c2C(=O)OCCC=CCC1 [Compound A1B3C4D1] |  | ≤ 500 |

Source: publication PMC7556317 (Chembiochem : a European journal of chemical biology, 2009)
